# Like-named read-outs stand apart in the source and are kept apart here.
# Test system: urease
# Description: The urea-stabilizing effect detected as the volatile NH3 losses from soil surface applied urea:
# 176 g air dried soil is filled into 500 mL laboratory bottle, which is then be watered with de-ionized water up to 50% of its water holding capacity and incubated at room temperature (about 21° C.) for 24 h.
# Urea granules are evenly distributed on the soil in each bottle. Each granule is treated with 5 μL of the respective products, containg the compositions and mixtures of the invention in the appropriate concentrations. N amount applied was 80 mg per bottle.
# NH3 free air blows constantly at a rate of about 4 L per min. through the bottle which bubbles through a scrubber solution which is periodically renewed and analyzed for NH4^+ with an autoanalyzer.
structure (smiles),measurement,setting,value
"CCCCNP(N)(N)=S [NBPT, N-(n-butyl)thiophosphoric acid triamide]","reduction of NH3—N losses (UI effect), in words","Piammon, UI and DMPP on the same granules",Nearly no reduction of NH3—N losses
same,"stability of the urease inhibitor, in words",UI and DMPP on the same Piammon granules,destroyed by DMPP
same,"stability of the urease inhibitor, in words",UI and DMPP on the same urea granules,destroyed by DMPP
same,"reduction of NH3—N losses (UI effect), in words",UI applied on Piammon granules only as well as mixed with DMPSA-treated AS granules,Significant reduction of NH3—N losses
same,"reduction of NH3—N losses (UI effect), in words",UI applied on urea granules only and mixed with DMPP-treated AS granules,Significant reduction of NH3—N losses
same,"reduction of NH3—N losses (UI effect), in words",UI applied on urea granules only and mixed with DMPP-treated urea granules,Significant reduction of NH3—N losses
same,"reduction of NH3—N losses (UI effect), in words",UI applied on urea granules only as well as mixed with DMPSA-treated urea granules,Significant reduction of NH3—N losses
same,"reduction of NH3—N losses (UI effect), in words","urea, UI and DMPP on the same urea granules",No reduction of NH3—N losses

# — patent publication US20230052403A1, “MIXTURES COMPRISING A SOLID CARRIER COMPRISING AN UREASE INHIBITOR AND A FURTHER SOLID CARRIER COMPRISING A NITRIFICATION INHIBITOR” (BASF SE, priority 2020, published 2023)
